Reference: patent US8247211B2, “Glycopeptide antibiotics” (American Cyanamid Company, priority 2001, dated 2012)
Converted amounts (≈) assume the structure as drawn.

Columns and labels:
Test in all cases: In vitro antibacterial evaluation: minimum inhibitory concentration (MIC), broth dilution method
Assay type in all cases: cell-based
Conditions in all cases: broth dilution, 18 hours at 35° C.
Escherichia coli = tested on: Escherichia coli
Enterococcus sp. = tested on: Enterococcus sp.
How it was run: (§1)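 NCCLS M7-A2 broth dilution; Muller-Hinton II […]; 5×10^5 CFU/mL; 64-0.06 μg/mL. MIC = lowest concentration with no growth.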

Staphylococcus sp. = tested on: Staphylococcus sp.
How it was run: as §1

Streptococcus sp. = tested on: Streptococcus sp.
How it was run: as §1

MIC Escherichia coli (ATCC 25922) (Escherichia coli): 32 µg/mL (≈ 27.9 µM) | MIC Escherichia coli (GC 4559) (Escherichia coli): 32 µg/mL (≈ 27.9 µM) | MIC Escherichia coli (GC 4560) (Escherichia coli): 4 µg/mL (≈ 3.49 µM) | MIC Enterococcus avium (GC 4558) (Enterococcus sp.; Enterococcus avium (GC 4558)): 8 µg/mL (≈ 6.98 µM) | MIC Enterococcus faecalis (ATCC 29212) (Enterococcus sp.; Enterococcus faecalis (ATCC 29212)): 64 µg/mL (≈ 55.8 µM) | MIC Enterococcus faecalis (GC 2242) (Enterococcus sp.; Enterococcus faecalis (GC 2242)): 64 µg/mL (≈ 55.8 µM) | MIC Enterococcus faecalis (GC 2691) (Enterococcus sp.; Enterococcus faecalis (GC 2691)): 64 µg/mL (≈ 55.8 µM) | MIC Enterococcus faecalis (GC 3059) (Enterococcus sp.; Enterococcus faecalis (GC 3059)): 64 µg/mL (≈ 55.8 µM) | MIC Enterococcus faecalis (GC 4552) (Enterococcus sp.; Enterococcus faecalis (GC 4552)): 64 µg/mL (≈ 55.8 µM) | MIC Enterococcus faecalis (GC 4553) (Enterococcus sp.; Enterococcus faecalis (GC 4553)): 16 µg/mL (≈ 14 µM) | MIC Enterococcus faecalis (GC 4554) (Enterococcus sp.; Enterococcus faecalis (GC 4554)): 64 µg/mL (≈ 55.8 µM) | MIC Enterococcus faecalis (GC 6189) (Enterococcus sp.; Enterococcus faecalis (GC 6189)): 64 µg/mL (≈ 55.8 µM) | MIC Enterococcus faecium (GC 2243) (Enterococcus sp.; Enterococcus faecium (GC 2243)): 16 µg/mL (≈ 14 µM) | MIC Enterococcus faecium (GC 4556) (Enterococcus sp.; Enterococcus faecium (GC 4556)): 64 µg/mL (≈ 55.8 µM) | MIC Enterococcus faecium (GC 4557) (Enterococcus sp.; Enterococcus faecium (GC 4557)): 4 µg/mL (≈ 3.49 µM) | MIC Enterococcus avium (GC 4558) (Enterococcus sp.): 8 µg/mL (≈ 6.98 µM) | MIC Enterococcus faecalis (ATCC 29212) (Enterococcus sp.): 64 µg/mL (≈ 55.8 µM) | MIC Enterococcus faecalis (GC 2242) (Enterococcus sp.): 64 µg/mL (≈ 55.8 µM) | MIC Enterococcus faecalis (GC 2691) (Enterococcus sp.): 64 µg/mL (≈ 55.8 µM) | MIC Enterococcus faecalis (GC 3059) (Enterococcus sp.): 64 µg/mL (≈ 55.8 µM) | MIC Enterococcus faecalis (GC 4552) (Enterococcus sp.): 64 µg/mL (≈ 55.8 µM) | MIC Enterococcus faecalis (GC 4553) (Enterococcus sp.): 16 µg/mL (≈ 14 µM) | MIC Enterococcus faecalis (GC 4554) (Enterococcus sp.): 64 µg/mL (≈ 55.8 µM) | MIC Enterococcus faecalis (GC 6189) (Enterococcus sp.): 64 µg/mL (≈ 55.8 µM) | MIC Enterococcus faecium (GC 2243) (Enterococcus sp.): 16 µg/mL (≈ 14 µM) | MIC Enterococcus faecium (GC 4556) (Enterococcus sp.): 64 µg/mL (≈ 55.8 µM) | MIC Enterococcus faecium (GC 4557) (Enterococcus sp.): 4 µg/mL (≈ 3.49 µM) | MIC Coagulase Negative Staphylococcus (GC 4547) (Staphylococcus sp.): 4 µg/mL (≈ 3.49 µM) | MIC Coagulase Negative Staphylococcus (GC 4548) (Staphylococcus sp.): 8 µg/mL (≈ 6.98 µM) | MIC Coagulase Negative Staphylococcus (GC 4549) (Staphylococcus sp.): 4 µg/mL (≈ 3.49 µM) | MIC Coagulase Negative Staphylococcus (GC 4551) (Staphylococcus sp.): 16 µg/mL (≈ 14 µM) | MIC Staphylococcus aureus SMITH (GC 4543) (Staphylococcus sp.): 16 µg/mL (≈ 14 µM) | MIC Staphylococcus aureus-SMITH (GC 4543) (Staphylococcus sp.; strain SMITH GC 4543): 16 µg/mL (≈ 14 µM) | MIC Streptococcus agalactiae (GC 4564) (Streptococcus sp.; Streptococcus agalactiae (GC 4564)): 16 µg/mL (≈ 14 µM) | MIC Streptococcus pneumoniae (ATCC 6301) (Streptococcus sp.; Streptococcus pneumoniae (ATCC 6301)): 16 µg/mL (≈ 14 µM) | MIC Streptococcus pneumoniae (GC 1894) (Streptococcus sp.; Streptococcus pneumoniae (GC 1894)): 8 µg/mL (≈ 6.98 µM) | MIC Streptococcus pneumoniae (GC 4565) (Streptococcus sp.; Streptococcus pneumoniae (GC 4565)): 32 µg/mL (≈ 27.9 µM) | MIC Streptococcus pyogenes (GC 4563) (Streptococcus sp.; Streptococcus pyogenes (GC 4563)): 8 µg/mL (≈ 6.98 µM) | MIC Streptococcus agalactiae (GC 4564) (Streptococcus sp.): 16 µg/mL (≈ 14 µM) | MIC Streptococcus pneumoniae (ATCC 6301) (Streptococcus sp.): 16 µg/mL (≈ 14 µM) | MIC Streptococcus pneumoniae (GC 1894) (Streptococcus sp.): 8 µg/mL (≈ 6.98 µM) | MIC Streptococcus pneumoniae (GC 4565) (Streptococcus sp.): 32 µg/mL (≈ 27.9 µM) | MIC Streptococcus pyogenes (GC 4563) (Streptococcus sp.): 8 µg/mL (≈ 6.98 µM)
Structure (SMILES): CC(c1ccccc1)C1NC(=O)CNC(=O)C(CO)NC(=O)C(C(O)C2CNC(=N)N2C2OC(CO)C(O)C(O)C2O)NC(=O)C(C(O)C2CNC(=N)N2)NC(=O)C(Cc2ccc3oc(SCC(=O)c4ccccc4)nc3c2)NC1=O (centres unmarked) [Example 48]
MIC Staphylococcus haemolyticus (GC 4546) (Staphylococcus sp.): 8 µg/mL (≈ 6.98 µM)
